According to patent US20250049035A1, “MICROBIOCIDAL BICYCLE HETEROCYCLIC DERIVATIVES” (SYNGENTA CROP PROTECTION AG, priority 2021, published 2025):

Assays:
[1] = system: Alternaria solani; experiment: Alternaria solani / tomato / leaf disc (early blight); format: in vivo; details: foliar, tomato leaf disks cv. Baby, inoculated 2 days after application, assessed 5-7 days after application, compared to untreated control
Procedure: Example B1: Alternaria solani/Tomato/Leaf Disc (Early Blight) Tomato leaf disks cv. Baby are placed on agar in multiwell plates (24-well format) and sprayed with the formulated test compound diluted in water. The leaf disks are inoculated with a spore suspension of the fungus 2 days after application. The inoculated leaf disks are incubated at 23° C./21° C.

[2] = system: Glomerella lagenarium (Colletotrichum lagenarium); experiment: Glomerella lagenarium (Colletotrichum lagenarium) / liquid culture (anthracnose); format: cell-based; details: Colletotrichum orbiculare, liquid culture (potato dextrose broth), growth inhibition photometrically 3-4 days after application, compared to untreated control
Procedure: (§1) Example B3: Glomerella lagenarium (Colletotrichum lagenarium)/Liquid Culture (Anthracnose) Conidia of the fungus from cryogenic storage are directly mixed into a nutrient broth (potato dextrose broth). After placing a DMSO solution of test compound into a microtiter plate (96-well format), the nutrient broth containing the fungal spores is added. The test plates are incubated at 24° C. and the inhibition of growth is measured photometrically 3-4 days after application.

[3] = system: Botryotinia fuckeliana (Botrytis cinerea); experiment: Botryotinia fuckeliana (Botrytis cinerea) / liquid culture (gray mould); format: cell-based; details: liquid culture (Vogels broth), growth inhibition photometrically 3-4 days after application, compared to untreated control
Procedure: as §1, with “B2: Botryotinia fuckeliana (Botrytis cinerea)/Liquid” for “B3: Glomerella lagenarium (Colletotrichum lagenarium)/Liquid”, “(Gray Mould)” for “(Anthracnose)”, “(Vogels” for “(potato dextrose”, “determined” for “measured”

[4] = system: Monographella nivalis (Microdochium nivale); experiment: Monographella nivalis (Microdochium nivale) / liquid culture (foot rot cereals); format: cell-based; details: liquid culture (potato dextrose broth), growth inhibition photometrically 4-5 days after application, compared to untreated control
Procedure: as §1, with “B9: Monographella nivalis (Microdochium nivale)/Liquid” for “B3: Glomerella lagenarium (Colletotrichum lagenarium)/Liquid”, “(Foot Rot Cereals)” for “(Anthracnose)”, “determined” for “measured”, “4-5” for “3-4”

[5] = system: Pyrenophora teres; experiment: Pyrenophora teres / barley / leaf disc preventative (net blotch); format: in vivo; details: foliar, barley leaf segments cv. Hasso, inoculated 2 days after application, assessed 5-7 days after application, compared to untreated control
Procedure: Example B12: Pyrenophora teres/Barley/Leaf Disc Preventative (Net Blotch) Barley leaf segments cv. Hasso are placed on agar in a multiwell plate (24-well format) and sprayed with the formulated test compound diluted in water. The leaf segments are inoculated with a spore suspension of the fungus 2 days after application. The inoculated leaf segments are incubated at 20° C. and 65% relative humidity under a light regime of 12 h light/12 h darkness in a climate cabinet and the activity of a compound is assessed as disease control compared to untreated when an appropriate level of disease damage appears in untreated check leaf segments (5-7 days after application).

[6] = system: Mycosphaerella arachidis (Cercospora arachidicola); experiment: Mycosphaerella arachidis (Cercospora arachidicola) / liquid culture (early leaf spot); format: cell-based; details: liquid culture (potato dextrose broth), growth inhibition photometrically 4-5 days after application, compared to untreated control
Procedure: as §1, with “B10: Mycosphaerella arachidis (Cercospora arachidicola)/Liquid” for “B3: Glomerella lagenarium (Colletotrichum lagenarium)/Liquid”, “(Early Leaf Spot)” for “(Anthracnose)”, “broth)” for “broth).”, “determined” for “measured”, “4-5” for “3-4”

[7] = system: Mycosphaerella graminicola (Septoria tritici); experiment: Mycosphaerella graminicola (Septoria tritici) / liquid culture (Septoria blotch); format: cell-based; details: Zymoseptoria tritici, liquid culture (potato dextrose broth), growth inhibition photometrically 4-5 days after application, compared to untreated control
Procedure: as §1, with “B15: Mycosphaerella graminicola (Septoria tritici/Liquid” for “B3: Glomerella lagenarium (Colletotrichum lagenarium)/Liquid”, “(Septoria Blotch)” for “(Anthracnose)”, “determined” for “measured”, “4-5” for “3-4”

[8] = system: Phaeosphaeria nodorum (Septoria nodorum); experiment: Phaeosphaeria nodorum (Septoria nodorum) / wheat / leaf disc preventative (glume blotch); format: in vivo; details: Parastagonospora nodorum, foliar, wheat leaf segments cv. Kanzler, inoculated 2 days after application, assessed 5-7 days after application, compared to untreated control
Procedure: Example B8: Phaeosphaeria Nodorum (Septoria nodorum)/Wheat/Leaf Disc Preventative (Glume Blotch) Wheat leaf segments cv. Kanzler are placed on agar in a multiwell plate (24-well format) and sprayed with the formulated test compound diluted in water. The leaf disks are inoculated with a spore suspension of the fungus 2 days after application. The inoculated test leaf disks are incubated at 20° C. and 75% relative humidity under a light regime of 12 h light/12 h darkness in a climate cabinet and the activity of a compound is assessed as percent disease control compared to untreated when an appropriate level of disease damage appears in untreated check leaf disks (5-7 days after application).

C[C@H]1c2ccsc2[C@@](C)(c2cnn(C)c2)CN1C(=O)c1nnc(-c2ccc(F)cc2F)s1 (racemic) [Compound P-8, [5-(2,4-difluorophenyl)-1,3,4-thiadiazol-2-yl]-[rac-(4R,7R)-4,7-dimethyl-7-(1-methylpyrazol-4-yl)-4,6-dihydrothieno[3,2-c]pyridin-5-yl]methanone]
≥ 80%: pest or weed control at 200 ppm [1] | inhibition of growth at 20 ppm [2] | inhibition of growth at 20 ppm [3] | inhibition of growth at 20 ppm [4] | pest or weed control at 200 ppm [5] | inhibition of growth at 20 ppm [6] | inhibition of growth at 20 ppm [7]

C[C@@H]1c2sccc2[C@@H](c2cnn(C)c2)CN1C(=O)c1nnc(-c2ccc(F)cc2F)s1 (racemic) [Compound P-16, [5-(2,4-difluorophenyl)-1,3,4-thiadiazol-2-yl]-[rac-(4R,7R)-7-methyl-4-(1-methylpyrazol-4-yl)-5,7-dihydro-4H-thieno[2,3-c]pyridin-6-yl]methanone]
≥ 80%: inhibition of growth at 20 ppm [7]

C[C@@H]1c2sccc2[C@H](c2cnn(C)c2)CN1C(=O)c1nnc(-c2ccc(F)cc2F)s1 [Compound P-1, [5-(2,4-difluorophenyl)-1,3,4-thiadiazol-2-yl]-[(4S,7R)-7-methyl-4-(1-methylpyrazol-4-yl)-5,7-dihydro-4H-thieno[2,3-c]pyridin-6-yl]methanone]
≥ 80%: inhibition of growth at 20 ppm [4] | inhibition of growth at 20 ppm [7]

Cc1c([C@@H]2CN(C(=O)c3cc(-c4ccc(F)cc4F)on3)Cc3ccsc32)cnn1C [Compound P-4, [5-(2,4-difluorophenyl)isoxazol-3-yl]-[(7R)-7-(1,5-dimethylpyrazol-4-yl)-6,7-dihydro-4H-thieno[3,2-c]pyridin-5-yl]methanone]
≥ 80%: pest or weed control at 200 ppm [8] | pest or weed control at 200 ppm [1] | inhibition of growth at 20 ppm [2] | inhibition of growth at 20 ppm [4] | pest or weed control at 200 ppm [5] | inhibition of growth at 20 ppm [7]

C[C@@H]1c2sccc2[C@](C)(c2cnn(C)c2)CN1C(=O)c1nnc(-c2ccc(F)cc2F)s1 [Compound P-5, [5-(2,4-difluorophenyl)-1,3,4-thiadiazol-2-yl]-[(4S,7R)-4,7-dimethyl-4-(1-methylpyrazol-4-yl)-5,7-dihydrothieno[2,3-c]pyridin-6-yl]methanone]
≥ 80%: inhibition of growth at 20 ppm [2] | inhibition of growth at 20 ppm [6]

CC1c2ccsc2C(C)(c2cnn(C)c2)CN1C(=O)c1cc(-c2ccc(F)cc2F)on1 (centres unmarked) [Compound P-20, [5-(2,4-difluorophenyl)isoxazol-3-yl]-[4,7-dimethyl-7-(1-methylpyrazol-4-yl)-4,6-dihydrothieno[3,2-c]pyridin-5-yl]methanone]
≥ 80%: pest or weed control at 200 ppm [8] | pest or weed control at 200 ppm [1] | inhibition of growth at 20 ppm [2] | inhibition of growth at 20 ppm [3] | inhibition of growth at 20 ppm [6] | inhibition of growth at 20 ppm [7]

Cn1cc(C2(C)CN(C(=O)c3nnc(-c4ccc(F)cc4F)s3)Cc3ccsc32)cn1 (centres unmarked) [Compound P-22, [5-(2,4-difluorophenyl)-1,3,4-thiadiazol-2-yl]-[7-methyl-7-(1-methylpyrazol-4-yl)-4,6-dihydrothieno[3,2-c]pyridin-5-yl]methanone]
≥ 80%: pest or weed control at 200 ppm [8] | inhibition of growth at 20 ppm [2] | inhibition of growth at 20 ppm [3] | inhibition of growth at 20 ppm [4] | pest or weed control at 200 ppm [5] | inhibition of growth at 20 ppm [6] | inhibition of growth at 20 ppm [7]

Cn1cc(C2CN(C(=O)c3cc(-c4ccc(F)cc4F)on3)Cc3cnsc32)cn1 (centres unmarked) [Compound P-23, [5-(2,4-difluorophenyl)isoxazol-3-yl]-[7-(1-methylpyrazol-4-yl)-6,7-dihydro-4H-isothiazolo[4,5-c]pyridin-5-yl]methanone]
≥ 80%: pest or weed control at 200 ppm [1] | inhibition of growth at 20 ppm [2] | inhibition of growth at 20 ppm [4] | inhibition of growth at 20 ppm [7]

Cn1cc(C2CN(C(=O)c3cc(-c4ccc(F)cc4F)on3)Cc3sncc32)cn1 (centres unmarked) [Compound P-26, [5-(2,4-difluorophenyl)isoxazol-3-yl]-[4-(1-methylpyrazol-4-yl)-5,7-dihydro-4H-isothiazolo[5,4-c]pyridin-6-yl]methanone]
≥ 80%: pest or weed control at 200 ppm [8] | pest or weed control at 200 ppm [1] | inhibition of growth at 20 ppm [2] | inhibition of growth at 20 ppm [3] | inhibition of growth at 20 ppm [4] | inhibition of growth at 20 ppm [7]

Cc1c(C2CN(C(=O)c3cc(-c4ccc(F)cc4F)on3)Cc3ncsc32)cnn1C (centres unmarked) [Compound P-28, [5-(2,4-difluorophenyl)isoxazol-3-yl]-[7-(1,5-dimethylpyrazol-4-yl)-6,7-dihydro-4H-thiazolo[4,5-c]pyridin-5-yl]methanone]
≥ 80%: pest or weed control at 200 ppm [8] | pest or weed control at 200 ppm [1] | inhibition of growth at 20 ppm [2] | inhibition of growth at 20 ppm [4] | pest or weed control at 200 ppm [5] | inhibition of growth at 20 ppm [6] | inhibition of growth at 20 ppm [7]

Cn1cc(C2CN(C(=O)c3cc(-c4ccc(F)cc4F)on3)Cc3cscc32)cn1 (centres unmarked) [Compound P-29]
≥ 80%: pest or weed control at 200 ppm [8] | pest or weed control at 200 ppm [1] | inhibition of growth at 20 ppm [2] | inhibition of growth at 20 ppm [3] | inhibition of growth at 20 ppm [4] | inhibition of growth at 20 ppm [6] | inhibition of growth at 20 ppm [7]

Cc1c(C2CN(C(=O)c3cc(-c4ccccc4F)on3)Cc3sccc32)cnn1C (centres unmarked) [Compound P-31, [4-(1,5-dimethylpyrazol-4-yl)-5,7-dihydro-4H-thieno[2,3-c]pyridin-6-yl]-[5-(2-fluorophenyl)isoxazol-3-yl]methanone]
≥ 80%: pest or weed control at 200 ppm [8] | pest or weed control at 200 ppm [1] | inhibition of growth at 20 ppm [2] | inhibition of growth at 20 ppm [3] | inhibition of growth at 20 ppm [4] | pest or weed control at 200 ppm [5] | inhibition of growth at 20 ppm [6] | inhibition of growth at 20 ppm [7]

Cc1nn(C)c(C)c1C1CN(C(=O)c2cc(-c3ccc(F)cc3F)on2)Cc2sccc21 (centres unmarked) [Compound P-36, [5-(2,4-difluorophenyl)isoxazol-3-yl]-[4-(1,3,5-trimethylpyrazol-4-yl)-5,7-dihydro-4H-thieno[2,3-c]pyridin-6-yl]methanone]
≥ 80%: pest or weed control at 200 ppm [1] | inhibition of growth at 20 ppm [2] | inhibition of growth at 20 ppm [3] | inhibition of growth at 20 ppm [4] | pest or weed control at 200 ppm [5] | inhibition of growth at 20 ppm [6] | inhibition of growth at 20 ppm [7]

Cc1nn(C)c(C)c1C1CN(C(=O)c2cc(-c3ccc(F)cc3F)on2)Cc2ccsc21 (centres unmarked) [Compound P-37, [5-(2,4-difluorophenyl)isoxazol-3-yl]-[7-(1,3,5-trimethylpyrazol-4-yl)-6,7-dihydro-4H-thieno[3,2-c]pyridin-5-yl]methanone]
≥ 80%: pest or weed control at 200 ppm [1] | inhibition of growth at 20 ppm [4] | inhibition of growth at 20 ppm [6] | inhibition of growth at 20 ppm [7]
